Assay results as given in publication PMC11249637, “Interaction of the Atypical Tetracyclines Chelocardin and Amidochelocardin with Renal Drug Transporters” (ACS Pharmacology & Translational Science, 2024).

Target: T1, mOct1 (Mus musculus, UniProt O08966)
T1 construct: expressed in transfected cells; host or cells: HEK293
T1 sequence (O08966 1-556): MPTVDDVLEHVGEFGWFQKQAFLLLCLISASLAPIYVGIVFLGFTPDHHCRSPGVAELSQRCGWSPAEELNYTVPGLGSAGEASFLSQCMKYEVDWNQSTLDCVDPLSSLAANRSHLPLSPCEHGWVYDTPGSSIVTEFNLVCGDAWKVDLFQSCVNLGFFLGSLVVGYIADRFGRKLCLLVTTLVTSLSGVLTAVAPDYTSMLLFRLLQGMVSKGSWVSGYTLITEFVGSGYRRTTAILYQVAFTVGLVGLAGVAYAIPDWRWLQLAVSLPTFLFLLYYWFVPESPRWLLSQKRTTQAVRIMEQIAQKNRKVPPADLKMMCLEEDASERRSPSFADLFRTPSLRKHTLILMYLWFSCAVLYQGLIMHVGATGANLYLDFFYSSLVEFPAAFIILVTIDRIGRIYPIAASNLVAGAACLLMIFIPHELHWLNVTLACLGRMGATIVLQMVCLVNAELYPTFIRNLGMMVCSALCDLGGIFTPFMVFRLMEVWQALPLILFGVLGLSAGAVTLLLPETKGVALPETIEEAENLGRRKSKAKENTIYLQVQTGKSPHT
Assay: Three-point uptake (substrate assessment) in mOct1-overexpressing HEK293 cells
Format: in vitro ADME
Experimental: This is important to gain a better understanding of the underlying mechanisms of secretion into urine. Therefore, we assessed the amount of compound taken up by the vector and transporter cells at three different concentrations (1, 10, and 100 μM for mOat1 and mOct1; 0.1, 1, and 10 μM for mOat3) and at two different incubation periods (1 and 5 min for mOat1 and mOct1; 5 and 10 min for mOat3).
The incubation buffer contained CHD and CDCHD in a final concentration of 1, 10, and 100 μM. After 1 and 5 min, the incubation was terminated. In addition, the probe inhibitor decynium22 (50 μM) was added in one concentration to 10 μM CHD and CDCHD, respectively, and after 1 and 5 min, the incubation was stopped. Inhibition of mOct1-mediated ^3H-MPP (10 μM) uptake by 50 μM decynium22 was performed as a control experiment. After 1 min, the incubation was terminated. All experiments were conducted in triplicate.
First, a calibration curve was prepared by spiking different concentrations of CHD and CDCHD into the cell matrix. Caffeine was used as an internal standard. In addition, quality control samples (QCs) were prepared for CHD and CDCHD in a cell matrix. The following extraction procedures were used: 300 μL of acetonitrile/water (1:1) is added to the cell pellet (sample or calibration/QC sample) for 15 min at 2000 rpm on an Eppendorf MixMate vortex mixer. 10 μL of this extracted sample is used for further analysis. 10 μL of the extracted cell sample is further extracted with 25 μL of a mixture of methanol/acetonitrile (2:1) containing 12.5 ng/mL caffeine as an internal standard (on ice) for 5 min at 2000 rpm on an Eppendorf MixMate vortex mixer. Then, samples were spun down at 15,870 × g for 10 min. Supernatants were transferred to standard HPLC glass vials. Samples were analyzed using an Agilent 1290 Infinity II HPLC system coupled to an AB Sciex QTrap6500plus mass spectrometer. LC conditions were as follows: column: Agilent Zorbax Eclipse Plus C18, 50 × 2.1 mm, 1.8 μm; temperature: 30°C; injection volume: 5 μL per sample; flow rate: 700 μL/min. Samples were run under the following conditions. Solvents: A: 100% water +0.1% formic acid; solvent B: 100% acetonitrile +0.1% formic acid. The gradient for CDCHD was as follows: 99% A at 0 min, 99% A until 0.1 min, 99–90% A from 0.1 to 1.0 min, 90–50% A from 1.0 to 2.4 min, 50–35% A from 2.4 to 2.7 min, 35–0% A from 2.7 until 4.5 min, 0% A until 5.5 min, 0–99% from 5.5 to 5.7 min, 99% A until 6.0 min. The gradient for CHD was as follows: 99% A at 0 min, 99% A until 0.1 min, 99–90% A from 0.1 to 1.0 min, 90–55% A from 1.0 to 2.3 min, 55–40% A from 2.3 to 2.5 min, 40–0% A from 2.5 until 4.5 min, 0% A until 5.5 min, 0–99% from 5.5 to 5.7 min, 99% A until 6.0 min. Mass transitions are depicted in Table S2.
For statistical testing of differences in uptake ratio or for the inhibitory effect, an ordinary one-way ANOVA test was performed using GraphPad Prism 9.5.1 software. For statistical testing of difference in uptake on vector- or transporter-overexpressing cells, an ordinary two-way ANOVA test was performed using GraphPad Prism 9.5.1 software. Michaelis–Menten kinetics were determined using the Michaelis–Menten algorithm of GraphPad Prism 9.5.1 software. Image resolution was adjusted by using GIMP software.

Row | SMILES | substrate of mOct1 (in words) | uptake ratio (cells without vs with decynium22), mOct1 (10 μM compound, 50 μM decynium22, 1 and 5 min) | mOct1: Vmax (Michaelis–Menten fit, 1, 10 and 100 μM) [nM/min] | less uptake in the presence of the specific inhibitor decynium22, mOct1 (10 μM compound, 50 μM decynium22, 5 min)
1 | Cc1ccc2c(C)c3c(c(O)c2c1O)C(=O)[C@@]1(O)C(=O)C(C(N)=O)=C(O)[C@@H](N)[C@H]1C3 [CDCHD, amidochelocardin] | is not a substrate | 1 | 15.0 | –
2 | CC(=O)C1=C(O)[C@@H](N)[C@H]2Cc3c(c(O)c4c(O)c(C)ccc4c3C)C(=O)[C@@]2(O)C1=O [CHD, chelocardin] | is a substrate | – | – | around 50%
